Test results from ChEMBL document CHEMBL1201862, “PubChem BioAssay data set” (2004).
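Five concentrations, 48 hours, 96-well plates. The concentration for 50% growth inhibition is given as GI50.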 The source made the active and inactive calls. Rule as the data show it: active = GI50 up to about 1.1 µM and inactive = higher.

Columns and labels:
Assay in all cases: NCI anticancer screen, dose series, 48 h
[1] = system: KM12
[2] = system: LOX IMVI
[3] = system: 786-0
[4] = system: SK-OV-3
[5] = system: SR
[6] = system: A549
[7] = system: SF-295
[8] = system: NCI-H226
[9] = system: TK-10
[10] = system: MOLT-4
[11] = system: K562
[12] = system: HT-29
[13] = system: SK-MEL-5
[14] = system: OVCAR-8
[15] = system: HL-60
[16] = system: OVCAR-5
[17] = system: Hs-578T
[18] = system: SW-620
[19] = system: SN12C
[20] = system: RPMI-8226

SMILES | GI50 [1] | GI50 [2] | GI50 [3] | GI50 [4] | GI50 [5] | GI50 [6] | GI50 [7] | GI50 [8] | GI50 [9] | GI50 [10] | GI50 [11] | GI50 [12] | GI50 [13] | GI50 [14] | GI50 [15] | GI50 [16] | GI50 [17] | GI50 [18] | GI50 [19] | GI50 [20]
CC(N/N=C(\S)N1CCN(c2ccccn2)CC1)c1nccc2ccccc12 (stereo not drawn) | 3.16 µM (inactive) | 0.804 µM (active) | 0.693 µM (active) | 0.241 µM (active) | < 0.0218 µM (active) | 1.65 µM (inactive) | 1.3 µM (inactive) | 1.83 µM (inactive) | 1.64 µM (inactive) | < 0.01 µM (active) | < 0.01 µM (active) | < 0.01 µM (active) | 0.897 µM (active) | 0.104 µM (active) | < 0.01 µM (active) | 0.453 µM (active) | 12.9 µM (inactive) | 0.316 µM (active) | 0.927 µM (active) | –
COc1cc(N(C)C)c(OC)cc1C=C1C=CC=C1 | > 100 µM (inactive) | – | > 100 µM (inactive) | > 100 µM (inactive) | 61.2 µM (inactive) | > 100 µM (inactive) | > 100 µM (inactive) | > 100 µM (inactive) | > 100 µM (inactive) | 38.6 µM (inactive) | 58.5 µM (inactive) | 60.4 µM (inactive) | > 100 µM (inactive) | > 100 µM (inactive) | 36.4 µM (inactive) | > 100 µM (inactive) | > 100 µM (inactive) | > 100 µM (inactive) | > 100 µM (inactive) | –
O=c1c(-c2ccc(Cl)cc2)nnc2n(Cc3ccccc3)c3ccccc3n12 | 28.9 µM (inactive) | 82.6 µM (inactive) | 14.9 µM (inactive) | – | > 100 µM (inactive) | 25.5 µM (inactive) | 19.1 µM (inactive) | 23.7 µM (inactive) | 20.6 µM (inactive) | 66.7 µM (inactive) | – | 52.6 µM (inactive) | 41.1 µM (inactive) | 45.3 µM (inactive) | 50 µM (inactive) | 48.9 µM (inactive) | 24 µM (inactive) | > 100 µM (inactive) | 82.2 µM (inactive) | –
CCNC(=S)/N=c1\sc(NCC)nc2sc3c(c12)CCN(N1CCc2c(sc4nc(NCC)s/c(=N\C(=S)NCC)c24)C1)C3 | 40.2 µM (inactive) | 26 µM (inactive) | 26.6 µM (inactive) | > 100 µM (inactive) | 30.5 µM (inactive) | 82.4 µM (inactive) | 72.4 µM (inactive) | 24.9 µM (inactive) | > 100 µM (inactive) | 34.1 µM (inactive) | 27.7 µM (inactive) | 41.1 µM (inactive) | 31.8 µM (inactive) | 60.4 µM (inactive) | 98.2 µM (inactive) | > 100 µM (inactive) | > 100 µM (inactive) | 34.7 µM (inactive) | > 100 µM (inactive) | –
CC1(C)OC[C@H](COCOP2(=O)Oc3ccc4ccccc4c3-c3c(ccc4ccccc34)O2)O1 | 15.5 µM (inactive) | – | 35.5 µM (inactive) | 23.8 µM (inactive) | 16.7 µM (inactive) | 21.5 µM (inactive) | 17.6 µM (inactive) | 18.7 µM (inactive) | 20.2 µM (inactive) | 15 µM (inactive) | 21.8 µM (inactive) | 16.4 µM (inactive) | 24.4 µM (inactive) | 25.2 µM (inactive) | 17.1 µM (inactive) | 17.8 µM (inactive) | 47.5 µM (inactive) | 15.3 µM (inactive) | 16.4 µM (inactive) | –
O=C(O)C1C2C=CC(O2)C1C(=O)NCc1ccncc1 (stereo not drawn) | > 100 µM (inactive) | > 100 µM (inactive) | > 100 µM (inactive) | > 100 µM (inactive) | > 100 µM (inactive) | > 100 µM (inactive) | > 100 µM (inactive) | > 100 µM (inactive) | > 100 µM (inactive) | – | > 100 µM (inactive) | > 100 µM (inactive) | > 100 µM (inactive) | > 100 µM (inactive) | > 100 µM (inactive) | > 100 µM (inactive) | > 100 µM (inactive) | > 100 µM (inactive) | > 100 µM (inactive) | > 100 µM (inactive)
COC(=O)c1ccc(-c2nc(C#N)c(N)o2)cc1 | > 100 µM (inactive) | > 100 µM (inactive) | 59.3 µM (inactive) | > 100 µM (inactive) | > 100 µM (inactive) | > 100 µM (inactive) | > 100 µM (inactive) | > 100 µM (inactive) | > 100 µM (inactive) | > 100 µM (inactive) | > 100 µM (inactive) | > 100 µM (inactive) | > 100 µM (inactive) | 57.1 µM (inactive) | – | > 100 µM (inactive) | 32.2 µM (inactive) | > 100 µM (inactive) | > 100 µM (inactive) | > 100 µM (inactive)
O=C1C(Cl)C2(CC(/C=C/c3ccccc3)=NN2c2cccc(S(=O)(=O)O)c2)N1c1nc2ccccc2s1 (stereo not drawn) | 16.3 µM (inactive) | 2.79 µM (inactive) | 17.3 µM (inactive) | – | 13.4 µM (inactive) | 15.3 µM (inactive) | – | 17.7 µM (inactive) | 16.9 µM (inactive) | 20.7 µM (inactive) | 21.4 µM (inactive) | 19.4 µM (inactive) | 15.5 µM (inactive) | 11.9 µM (inactive) | 14.9 µM (inactive) | 18.1 µM (inactive) | 30.9 µM (inactive) | 28.8 µM (inactive) | 17.2 µM (inactive) | 13.8 µM (inactive)
[O-][S+](CCc1ccccc1)Nc1ccccc1 (stereo not drawn) | > 100 µM (inactive) | > 100 µM (inactive) | > 100 µM (inactive) | – | > 100 µM (inactive) | > 100 µM (inactive) | > 100 µM (inactive) | > 100 µM (inactive) | > 100 µM (inactive) | > 100 µM (inactive) | > 100 µM (inactive) | > 100 µM (inactive) | > 100 µM (inactive) | > 100 µM (inactive) | > 100 µM (inactive) | > 100 µM (inactive) | 0.0406 µM (active) | > 100 µM (inactive) | > 100 µM (inactive) | > 100 µM (inactive)
Cn1c(N/N=C/c2ccccc2)nc(-c2ccc([N+](=O)[O-])cc2)c(C#N)c1=O | 26.9 µM (inactive) | 61.8 µM (inactive) | 91.8 µM (inactive) | > 100 µM (inactive) | 2.63 µM (inactive) | 28.8 µM (inactive) | 50.1 µM (inactive) | – | 55 µM (inactive) | 10.4 µM (inactive) | 1.61 µM (inactive) | 45.7 µM (inactive) | 35.4 µM (inactive) | 34.3 µM (inactive) | 11 µM (inactive) | 38.6 µM (inactive) | 55.1 µM (inactive) | 65.8 µM (inactive) | 47.2 µM (inactive) | 17.7 µM (inactive)
CCOC(=O)C1(O)C(=O)C2=C3C(=O)OC(C4OC(=O)c5c(c(O)c(O)c(O)c5C31)-c1c(cc(O)c(O)c1O)C(=O)OC1COC(=O)c3cc(O)c(O)c(O)c3-c3c(cc(O)c(O)c3O)C(=O)OC14)[C@@H]2O (stereo partly drawn) | 33.7 µM (inactive) | 15.8 µM (inactive) | 19.2 µM (inactive) | 61.8 µM (inactive) | 30.8 µM (inactive) | 15.2 µM (inactive) | 19.1 µM (inactive) | 16.5 µM (inactive) | – | 22 µM (inactive) | 20.7 µM (inactive) | 18.5 µM (inactive) | 14.3 µM (inactive) | 19.8 µM (inactive) | 19.1 µM (inactive) | 15.9 µM (inactive) | 30.8 µM (inactive) | 20.7 µM (inactive) | 17 µM (inactive) | 28.5 µM (inactive)
CN(C)CC1=Nc2cccc3cccc(c23)N1 | 25.6 µM (inactive) | 19.4 µM (inactive) | 12.4 µM (inactive) | > 100 µM (inactive) | 17.9 µM (inactive) | 67.8 µM (inactive) | > 100 µM (inactive) | 20.3 µM (inactive) | 18.4 µM (inactive) | – | 16.7 µM (inactive) | 22.8 µM (inactive) | 15.4 µM (inactive) | 33.8 µM (inactive) | 13.2 µM (inactive) | 17.4 µM (inactive) | 34.7 µM (inactive) | 4.08 µM (inactive) | 16.8 µM (inactive) | 3.3 µM (inactive)
CC(CCOc1ccc2ccc(=O)oc2c1)C1=CC(=O)C(C)(C)O1 (stereo not drawn) | 2.17 µM (inactive) | 2.23 µM (inactive) | 2.2 µM (inactive) | 3.53 µM (inactive) | 0.612 µM (active) | 2.87 µM (inactive) | 3.94 µM (inactive) | 7.35 µM (inactive) | 3.34 µM (inactive) | 2.12 µM (inactive) | – | 3.3 µM (inactive) | 5.13 µM (inactive) | 1.96 µM (inactive) | 1.85 µM (inactive) | 9.27 µM (inactive) | 2.38 µM (inactive) | 1.92 µM (inactive) | 1.67 µM (inactive) | 1.95 µM (inactive)
CC(=O)Oc1ccc(-c2cc3ccccc3oc2=O)cc1OC(C)=O | 11.8 µM (inactive) | 30.5 µM (inactive) | 21.7 µM (inactive) | – | 8.63 µM (inactive) | 14.8 µM (inactive) | 28.2 µM (inactive) | 53.1 µM (inactive) | 22.1 µM (inactive) | 3.47 µM (inactive) | 27.5 µM (inactive) | 36 µM (inactive) | – | 24.1 µM (inactive) | 1.89 µM (inactive) | 15.9 µM (inactive) | 35.9 µM (inactive) | 33.3 µM (inactive) | 53.7 µM (inactive) | 12.7 µM (inactive)
O=C1C(Cl)=C(Nc2ccc(S(=O)(=O)O)cc2)C(=O)c2ccccc21 | 22 µM (inactive) | 30.3 µM (inactive) | 27.2 µM (inactive) | – | 32.6 µM (inactive) | 21.9 µM (inactive) | 33.6 µM (inactive) | 34.4 µM (inactive) | 22.1 µM (inactive) | 42.1 µM (inactive) | 28.2 µM (inactive) | > 100 µM (inactive) | 13.4 µM (inactive) | 30.1 µM (inactive) | 26.9 µM (inactive) | > 100 µM (inactive) | 24 µM (inactive) | 22 µM (inactive) | – | 24.7 µM (inactive)
